A word on the IC50: it is the point on the concentration scale where inhibition reaches its midpoint.

We go through five molecules from patent US9505780B2, “Thienopyranones as kinase and epigenetic inhibitors” (SignalRx Pharmaceuticals, Inc., priority 2014, dated 2016).

Where only a bound is given, the exact number is not on record here.

Data set [1] concerns the target PI3Kδ (Homo sapiens (Human), UniProt O00329). The experiment in a line: PI3K delta isoform inhibition. Format: biochemical. The text has this: Inhibitory activity can be determined routinely using known methods and also front commercial vendors offering this service for kinases and bromodomain proteins. […] In vivo, PI3K inhibition can be determined from target tissue biopsies by standard tissue processing to disrupt cells and then performing Western Blot analysis to determine the presence or absence of pAKT (substrate of PI3K) relative to a control sample. The activity of a compound of the invention as an inhibitor of a bromodomain-containing protein, such as a BET protein, such as BRD2, BRD3, BRD4, and/or BRDT, or an isoform or mutant thereof may be determined in vitro, in vivo, or in a cell line. In vitro assays include assays that determine inhibition of bromodomain-containing proteins. Alternatively, inhibitor binding may be determined by running a competition experiment where a provided compound is incubated with a bromodomain-containing protein, such as a BET protein bound to known ligands, labeled or unlabeled. For example, bromodomain inhibition can be determined in vitro using Alpha Screen Technology (http://www.reactionbiology.com/webapps/site/NewsPDFs/Bromodomain%20Assay%20Platform%20for%20Drug%/20Screening%20and%20Discovery.pdf). In vivo bromodomain inhibition can be determined indirectly by evaluating the amount of protect present of proteins whose genes' transcription is influenced or controlled by the bromodomain protein, for example, the MYCN protein transcription is controlled by BRD4 (J. E. Delmore et al., Cell 2011, 146, 904-917; A. Puissant, Cancer Discov. 2013, 3, 308-323). Bromodomain inhibition may also be predicted by in silico modeling as described below in the Examples.
(§1) Several TP Scaffold compounds (structures shown in FIG. 2 and Table 3) were tested for inhibition activity against isoforms of PI3K (alpha, beta, gamma, and delta isoforms) and the bromodomain protein BRD4 at regions 1 (BRD4-1) and 2 (BRD4-2).

For data set [2], the target named is PI3Kβ (Homo sapiens (Human), UniProt P42338). The experiment in a line: PI3K beta isoform inhibition. The class given is biochemical.
Chain of PI3Kβ (P42338 whole entry, canonical isoform): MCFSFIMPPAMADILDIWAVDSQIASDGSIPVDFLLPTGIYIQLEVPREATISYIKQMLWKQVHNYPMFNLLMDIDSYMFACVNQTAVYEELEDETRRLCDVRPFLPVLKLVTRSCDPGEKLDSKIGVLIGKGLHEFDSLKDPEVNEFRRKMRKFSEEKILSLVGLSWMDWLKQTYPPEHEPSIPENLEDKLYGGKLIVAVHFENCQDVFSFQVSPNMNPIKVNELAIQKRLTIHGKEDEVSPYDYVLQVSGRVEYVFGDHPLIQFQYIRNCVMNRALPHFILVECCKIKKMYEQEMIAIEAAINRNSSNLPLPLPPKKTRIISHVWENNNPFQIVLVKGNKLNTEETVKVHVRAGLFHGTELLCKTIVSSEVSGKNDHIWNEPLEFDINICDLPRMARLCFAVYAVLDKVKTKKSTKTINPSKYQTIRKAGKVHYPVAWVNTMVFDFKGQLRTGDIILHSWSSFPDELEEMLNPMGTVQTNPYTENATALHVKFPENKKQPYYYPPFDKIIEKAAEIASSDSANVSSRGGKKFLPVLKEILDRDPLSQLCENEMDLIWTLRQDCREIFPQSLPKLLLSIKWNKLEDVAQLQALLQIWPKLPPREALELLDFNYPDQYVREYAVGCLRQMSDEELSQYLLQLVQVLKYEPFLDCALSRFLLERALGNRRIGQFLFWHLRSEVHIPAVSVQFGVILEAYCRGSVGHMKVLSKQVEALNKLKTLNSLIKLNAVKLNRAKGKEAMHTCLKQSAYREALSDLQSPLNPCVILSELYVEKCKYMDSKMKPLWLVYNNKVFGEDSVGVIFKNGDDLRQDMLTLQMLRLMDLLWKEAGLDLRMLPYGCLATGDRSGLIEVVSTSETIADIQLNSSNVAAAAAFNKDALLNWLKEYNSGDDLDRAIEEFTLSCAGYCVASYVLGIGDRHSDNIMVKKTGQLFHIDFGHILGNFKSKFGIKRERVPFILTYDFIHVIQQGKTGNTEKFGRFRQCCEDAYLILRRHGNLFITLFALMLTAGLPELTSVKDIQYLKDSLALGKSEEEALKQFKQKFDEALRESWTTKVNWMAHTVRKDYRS
Chain of PI3Kβ (P27986 whole entry partner, canonical isoform): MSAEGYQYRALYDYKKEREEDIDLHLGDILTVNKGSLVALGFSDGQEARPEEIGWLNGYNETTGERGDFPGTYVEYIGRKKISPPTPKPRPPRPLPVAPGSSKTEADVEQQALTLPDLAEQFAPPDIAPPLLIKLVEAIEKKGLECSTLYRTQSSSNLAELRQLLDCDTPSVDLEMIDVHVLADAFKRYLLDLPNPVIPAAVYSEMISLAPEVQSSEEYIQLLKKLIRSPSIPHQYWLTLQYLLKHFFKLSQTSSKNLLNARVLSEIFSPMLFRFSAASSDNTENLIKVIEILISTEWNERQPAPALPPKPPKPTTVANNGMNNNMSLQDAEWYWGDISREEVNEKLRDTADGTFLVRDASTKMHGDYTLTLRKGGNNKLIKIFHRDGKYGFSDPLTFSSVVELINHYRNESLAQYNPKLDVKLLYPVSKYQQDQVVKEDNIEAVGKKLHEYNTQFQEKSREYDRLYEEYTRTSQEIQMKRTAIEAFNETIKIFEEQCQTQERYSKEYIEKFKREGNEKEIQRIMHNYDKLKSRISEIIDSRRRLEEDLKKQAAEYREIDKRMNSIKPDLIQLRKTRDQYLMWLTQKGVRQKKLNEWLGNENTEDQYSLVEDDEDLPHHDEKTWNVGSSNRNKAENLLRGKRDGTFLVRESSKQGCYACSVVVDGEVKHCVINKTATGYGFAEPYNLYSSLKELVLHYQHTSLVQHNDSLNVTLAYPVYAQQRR
The target of data set [3] is BRD4 (Homo sapiens, UniProt O60885). The experiment in a line: BRD4 inhibition assay (region not distinguished). The class given is biochemical. Particulars: BRD4 regions 1 and 2.
Data set [4] deals with BRD4-1 (Homo sapiens (Human), UniProt O60885). The experiment in a line: BRD4 region 1 (BRD4-1) inhibition. The class given is biochemical.
The subject of data set [5] is B16 melanoma cells. Briefly: Mouse model of melanoma metastasis, B16 F10 luciferase cells by tail vein. Format: in vivo, WT mice. Particulars: 50 mg/kg every other day, 15 days. An excerpt: The luciferase signal was monitored every third day by rejecting luciferin, until the lungs were harvested on day 15 (n=5). […] Lungs extracted from these animals are shown below the luciferase imaged pictures supporting the repression of tumor growth in Cmpd 28-treated mice.

In data set [6] the test system is IMR32 cell line. Briefly: Real-time PCR of N-myc and Cyclin D1 mRNA. Format: cell-based. Particulars: 5 μM, 24 hrs. The method, then:
Cells were stimulated with 50 ng/ml IGF and used for RNA Isolation after 24 hrs of treatment with various inhibitors. The results for N-Myc are shown in FIG. 7A and for Cyclin D1 in FIG. 7B.
The experiment of Example 7 was repeated in the IMR32 cell line (MYCN amplified neuroblastoma cancer cell line).
(In general: In qPCR the cycle at which signal appears reflects the starting amount.)

In data set [7] the target is PI3Kγ (Homo sapiens (Human), UniProt P48736). Briefly: PI3K gamma isoform inhibition. The class given is biochemical.
Chain of PI3Kγ (P48736 whole entry, canonical isoform): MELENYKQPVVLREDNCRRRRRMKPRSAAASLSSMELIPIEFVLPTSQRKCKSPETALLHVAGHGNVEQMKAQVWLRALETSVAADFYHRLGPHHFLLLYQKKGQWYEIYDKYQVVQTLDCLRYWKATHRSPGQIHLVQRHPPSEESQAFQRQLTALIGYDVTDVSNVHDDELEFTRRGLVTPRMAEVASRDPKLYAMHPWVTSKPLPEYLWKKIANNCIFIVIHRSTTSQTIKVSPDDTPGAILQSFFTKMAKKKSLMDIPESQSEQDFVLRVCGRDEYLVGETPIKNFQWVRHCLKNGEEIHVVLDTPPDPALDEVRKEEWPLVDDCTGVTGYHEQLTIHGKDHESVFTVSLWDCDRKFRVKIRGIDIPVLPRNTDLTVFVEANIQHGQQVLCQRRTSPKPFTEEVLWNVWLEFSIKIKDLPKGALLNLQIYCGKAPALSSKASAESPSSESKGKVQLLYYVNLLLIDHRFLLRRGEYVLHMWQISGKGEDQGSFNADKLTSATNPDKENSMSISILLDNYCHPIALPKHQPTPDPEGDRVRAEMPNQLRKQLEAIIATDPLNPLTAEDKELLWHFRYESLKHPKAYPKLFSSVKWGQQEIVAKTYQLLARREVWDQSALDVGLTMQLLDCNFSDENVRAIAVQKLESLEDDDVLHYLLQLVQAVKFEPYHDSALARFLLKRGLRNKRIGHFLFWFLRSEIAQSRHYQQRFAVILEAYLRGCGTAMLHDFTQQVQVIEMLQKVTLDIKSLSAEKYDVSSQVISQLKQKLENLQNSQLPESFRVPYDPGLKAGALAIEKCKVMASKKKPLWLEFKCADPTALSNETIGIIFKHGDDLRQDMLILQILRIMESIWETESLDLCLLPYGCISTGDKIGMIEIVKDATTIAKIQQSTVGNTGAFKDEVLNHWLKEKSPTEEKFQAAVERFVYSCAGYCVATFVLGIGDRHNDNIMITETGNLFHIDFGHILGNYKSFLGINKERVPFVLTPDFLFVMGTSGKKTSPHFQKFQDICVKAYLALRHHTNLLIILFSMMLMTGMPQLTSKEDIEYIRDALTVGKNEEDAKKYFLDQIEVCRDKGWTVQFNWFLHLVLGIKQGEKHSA
In data set [8] the target is BRD4-2 (Homo sapiens (Human), UniProt O60885). Briefly: BRD4 region 2 (BRD4-2) inhibition. Format: biochemical.
Data set [9] relates to MYCN amplified SKNBE(2) cells. The experiment in a line: Brd4 chromatin precipitation, quantitative PCR of MYCN promoter region. Particulars: 24 hours exposure. Format: cell-based, human. The method, then: MYCN amplified SKNBE(2) cells were exposed to inhibitors for 24 hours then chromatin was precipitated with Brd4 (rabbit polyclonal antibody) along with rabbit IgG as a negative control (IgG). Precipitated chromatin was analyzed for the MYCN gene (2 sites within the MYCN promoter region) by quantitative PCR and enrichment is shown as the percentage of total input DNA (FIG. 4). The negative control region primers amplify within a gene desert region approximately 1 Mb away from MYCN (MYC-N NR). Error bars represent ±SEM of triplicate data. P<0.05 as compared to positive control (paired t-test). Positive control: No inhibitor; IP with BRD4 antibody, Negative Control: No inhibitor, IP with rabbit IgG.

For data set [10], the system named is SKNBE (2) cells. Briefly: Western blot of p-AKT and N-MYC in SKNBE(2) cells. Particulars: 24 hrs treatment, IGF stimulated. The class given is cell-based, human. As to the method: Cells were stimulated with 50 ng/ml IGF for 30 min and used for lysate preparation. Proteins were quantitated by the BCA protein assay (Pierce). Equal amounts of protein were resolved by polyacrylamide gels, transferred to nitrocellulose membrane and probed by Western blot with the following primary antibodies: p-AKT(Ser473), API (Cell Signaling Technologies), N-MYC, CyclinD1 and β-actin (Santa Cruz Biotechnology).
(In general: A western blot detects proteins with antibodies after separation by electrophoresis.)

In data set [11] the test system is NB9464. The experiment in a line: NB9464 neuroblastoma tumor growth in nude mice. Particulars: 50 mg/kg, 3 days a week for 1.5 weeks, intra-peritoneal.
Text: MYCN-overexpressing murine neuroblastoma cells (NB9464) were transplanted into nude mice, grown lot 24 days and randomized into two groups.
Data set [12] relates to Panc02. Briefly: Orthotopic pancreatic model of spontaneous metastasis. The class given is in vivo, WT mice. Particulars: 50 mg/kg, three times a week. As to the method:
Panc02 (1×10^6) tumor cells were injected into the pancreas of WT mice (n=18). After 20 days, mice were randomized into two groups. One group was treated with DMSO (control) and the other group was treated with 50 mg/kg of SF2523, three tunes a week. Tumors were removed 35 days after tumor implantation. Values are mean±SEM (n=8 in each gp; P<0.01; pair wise two-sided Student's t test). […] Values are mean±SEM (n=7; P<0.01; pair wise two-sided. Student's t test). The data are representative of three independent experiments performed.

The test system of data set [13] is PC3. Briefly: Cellular PI3K inhibitory activity, pAKT Ser473 ELISA. Format: cell-based. Particulars: Homo sapiens, PC-3; IGF-1 stimulated, pAKT serine 473. As to the method: Biological testing of compounds of Formula I. Representative compounds of the invention were tested for cellular PI3K inhibitory activity (as measured by the most robust marker of pathway activity pAKT) in a prostate cancer cell line (PC3), which is summarized in Table 3. […] After this time period the cells were serum starved for 5 hours followed by application of the test compound. Test compound was added as a DMSO (dimethyl sulfoxide) solution such that the final DMSO concentration in the cell media was less than or equal to 0.2% by volume. After 30 minutes of exposure the growth factor stimulant, human IGF-1 (Pepro Tech, Inc., Rocky Hill, N.J., Cat. #100-11), was added in each well. After 30 minutes of IGF-1 exposure, cells were removed the media and cell lysates were prepared using RIPA Lysis buffer (Upstate, Lake Placid, N.Y., Cat. #20-188), keeping on ice. The pAKT serine 473 level was measured in duplicate samples of the cell lysates using commercially available assays such as the Pathscan® Sandwich ELISA kit for Ser473 pAKT (Cell Signaling, Danvers, Mass. Cat. #7160). A SpectraMax Plus spectrophotometric plate reader (Molecular Devices, Sunnydale, Calif.) was used to measure the optical density signal for pAKT at 450 nm (OD450 nm). The pAKT OD450 nm readings were normalized by total protein amount in the cell lysates determined by standard methods.
On the technique in general: ELISA stands for enzyme-linked immunosorbent assay.

The target of data set [14] is PI3Kα (Homo sapiens (Human), UniProt P42336). The experiment in a line: PI3K alpha isoform inhibition. Format: biochemical.
Chain of PI3Kα (P42336 whole entry, canonical isoform): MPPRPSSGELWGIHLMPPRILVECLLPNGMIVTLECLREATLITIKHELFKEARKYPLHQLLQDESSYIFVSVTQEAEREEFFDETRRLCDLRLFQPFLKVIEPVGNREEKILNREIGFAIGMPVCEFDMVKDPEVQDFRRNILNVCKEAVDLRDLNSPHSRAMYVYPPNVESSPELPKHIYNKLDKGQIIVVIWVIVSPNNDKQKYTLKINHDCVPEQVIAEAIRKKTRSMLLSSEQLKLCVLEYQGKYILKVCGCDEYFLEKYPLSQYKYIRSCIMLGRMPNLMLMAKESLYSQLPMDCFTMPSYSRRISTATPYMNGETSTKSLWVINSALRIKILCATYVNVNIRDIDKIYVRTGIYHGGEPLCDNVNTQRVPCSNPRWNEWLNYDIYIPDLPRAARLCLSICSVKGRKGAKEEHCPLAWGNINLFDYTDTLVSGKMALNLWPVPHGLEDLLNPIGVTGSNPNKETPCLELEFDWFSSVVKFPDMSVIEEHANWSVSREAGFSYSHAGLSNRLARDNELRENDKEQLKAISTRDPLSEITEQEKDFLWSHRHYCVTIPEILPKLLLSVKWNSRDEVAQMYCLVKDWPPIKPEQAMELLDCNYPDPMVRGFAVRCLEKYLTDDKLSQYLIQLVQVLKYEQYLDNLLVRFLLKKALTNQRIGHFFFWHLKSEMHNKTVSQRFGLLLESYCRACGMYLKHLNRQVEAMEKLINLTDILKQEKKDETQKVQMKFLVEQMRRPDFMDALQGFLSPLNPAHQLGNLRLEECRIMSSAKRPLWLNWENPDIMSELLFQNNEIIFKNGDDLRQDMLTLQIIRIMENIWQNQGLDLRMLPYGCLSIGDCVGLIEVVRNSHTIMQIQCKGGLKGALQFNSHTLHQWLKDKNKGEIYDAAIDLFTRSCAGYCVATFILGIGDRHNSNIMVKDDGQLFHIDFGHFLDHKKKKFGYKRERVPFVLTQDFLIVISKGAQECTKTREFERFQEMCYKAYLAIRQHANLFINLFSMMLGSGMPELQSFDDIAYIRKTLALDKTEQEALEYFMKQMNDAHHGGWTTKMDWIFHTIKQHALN
Chain of PI3Kα (P27986 whole entry partner, canonical isoform): as the sequence (P27986 whole entry partner, canonical isoform) above
For data set [15], the system named is MYCN-dependent MB patient derived xenograft (PDX) cell line. Briefly: Cytotoxicity / proliferation study, alone and in combination. The class given is cell-based.
Data set [16] concerns SKNBE(2). The description is as above. Format: cell-based, human.
Data set [17] has as its system PI3K. The experiment in a line: PI3K inhibition (isoform not distinguished). Format: biochemical. The method, then: as §1
All thienopyranone-based compounds tested inhibited either PI3K or BRD4 or both PI3K and BRD4. […] JQ1+, a known bromodomain inhibitor, was used as reference compound.

Data set [18] concerns NB9464. Briefly: Cytotoxicity / proliferation study, alone and in combination. The class given is cell-based, murine.
For data set [19], the system named is PI-3 kinases. Particulars: cited from earlier work.
For data set [20], the system named is breast cancer stem cells. Particulars: decreased from 11%; tumors with high HER2; cited from earlier work.

Chain of PI3Kδ (O00329 whole entry, canonical isoform): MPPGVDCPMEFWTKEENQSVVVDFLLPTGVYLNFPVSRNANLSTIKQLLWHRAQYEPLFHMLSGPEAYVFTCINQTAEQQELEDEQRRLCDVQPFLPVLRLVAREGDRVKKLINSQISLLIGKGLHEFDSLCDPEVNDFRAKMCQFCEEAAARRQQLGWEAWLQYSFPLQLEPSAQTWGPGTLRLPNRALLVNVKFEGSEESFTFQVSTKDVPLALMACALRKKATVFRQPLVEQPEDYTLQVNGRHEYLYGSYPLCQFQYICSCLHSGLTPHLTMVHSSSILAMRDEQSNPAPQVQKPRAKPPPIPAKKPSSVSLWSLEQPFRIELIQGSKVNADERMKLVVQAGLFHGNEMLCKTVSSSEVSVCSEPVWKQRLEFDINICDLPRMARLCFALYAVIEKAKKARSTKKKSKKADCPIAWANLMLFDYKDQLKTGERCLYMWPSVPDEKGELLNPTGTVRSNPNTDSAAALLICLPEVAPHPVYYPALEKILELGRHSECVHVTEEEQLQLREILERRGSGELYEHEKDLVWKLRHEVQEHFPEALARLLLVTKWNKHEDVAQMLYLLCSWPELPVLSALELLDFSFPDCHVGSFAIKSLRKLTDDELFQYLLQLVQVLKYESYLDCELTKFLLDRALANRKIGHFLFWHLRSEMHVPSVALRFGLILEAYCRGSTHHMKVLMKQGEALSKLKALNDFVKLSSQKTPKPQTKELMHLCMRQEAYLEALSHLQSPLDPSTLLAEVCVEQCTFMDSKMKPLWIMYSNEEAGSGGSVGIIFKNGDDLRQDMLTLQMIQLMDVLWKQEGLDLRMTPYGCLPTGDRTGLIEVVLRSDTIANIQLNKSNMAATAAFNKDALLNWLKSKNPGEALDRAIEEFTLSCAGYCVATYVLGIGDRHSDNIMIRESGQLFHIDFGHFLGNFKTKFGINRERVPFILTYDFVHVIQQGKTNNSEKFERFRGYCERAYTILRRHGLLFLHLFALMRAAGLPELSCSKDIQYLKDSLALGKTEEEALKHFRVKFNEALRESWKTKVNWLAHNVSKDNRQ
Chain of PI3Kδ (P27986 whole entry partner, canonical isoform): as the sequence (P27986 whole entry partner, canonical isoform) above

With `O=c1cc(N2CCOCC2)oc2c(-c3ccc4c(c3)OCCO4)csc12` [Cmpd 28], the IC50 in [1] was 0.96 µM; in data set [2] it was 0.214 µM; in data set [4], 0.241 µM; in data set [7], 0.158 µM; in [8] it was 1.55 µM; in [13], 0.161 to 0.44 µM. The “BRD4 inhibition” value in data set [3] was “showed activity”. Besides, in data set [5], the “luciferase bioimaging of cancer cells” value is “little evidence of the presence of cancer cells”. The “reduction in metastatic nodules” value in [5] was 60%. In data set [6], the “Cyclin D1 mRNA expression” value is listed as “reducing mRNA expression”. The “MYCN mRNA expression” value in [6] is listed as “inhibits MYCN expression”. Besides, the “MYCN expression (Brd4 ChIP, MYCN promoter)” value (“MYCN expression” below) in data set [9] was “significantly repressed MYCN expression”. Further, the “MYCN protein quantity, Western blot” value in [10] is “decreased”. In addition, the “pAKT, Western blot” value in [10] is “decreased”. For the same molecule, the “tolerability / body weight” value in data set [11] is listed as “well tolerated (no body weight loss”. The “tumor growth compared to vehicle” value in data set [11] is listed as “significantly blocked tumor growth”. The spontaneous metastasis result in data set [12] was “blocks spontaneous metastasis”.

Take `Cc1sc2c(c1C)C(c1ccc(Cl)cc1)=N[C@@H](CC(=O)OC(C)(C)C)c1nnc(C)n1-2` [JQ-1]: the IC50 was more than 50 µM in [1]; more than 50 µM in data set [7]; more than 50 µM in data set [14]; 2.2 µM in data set [15]; 1.9 µM in [16]; 1.6 µM in data set [18]. Besides, the “MYCN expression” value in data set [9] is “significantly repressed MYCN expression”. For the same molecule, the “MYCN protein quantity, Western blot” value in data set [10] is “inhibited only MYCN quantities”. Also, the “PI3K inhibition” value in data set [17] was “does not inhibit PI3K”.

As to `O=c1cc(N2CCOCC2)oc2c(-c3ccccc3)cccc12` [LY294002, 2-(4-morpholinyl)-8-phenyl-4H-1-benzopyran-4-one], the half-maximal inhibitory concentration (IC50) in data set [1] is 3.22 µM; in data set [4] it was 5.33 µM; in data set [8] it was 13.1 µM; in data set [19] it was 1.4 µM. Also, the “MYCN expression” value in data set [9] is on record as “significantly repressed MYCN expression”. Moreover, the “MYCN protein quantity, Western blot” value in data set [10] is listed as “decreased”. Further, the “pAKT, Western blot” value in data set [10] is on record as “decreased”.

`O=c1cc(N2CCNCC2)oc2c(-c3ccccc3)cccc12` [LY303511]: the “MYCN expression” value in [9] is on record as “significantly repressed MYCN expression”. In addition, the “MYCN protein quantity, Western blot” value in [10] was “inhibited only MYCN quantities”.

Take `CS(=O)(=O)CCNCc1ccc(-c2ccc3ncnc(Nc4ccc(OCc5cccc(F)c5)c(Cl)c4)c3c2)o1` [Lapatinib]: the “breast cancer stem cells, % of cells after treatment” value in data set [20] is reported as 5%.
